Measurements from PubChem BioAssay (NCI).
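Growth conditions: 96-well plates. Treatment: test compound, 48 hours, 5 concentrations. Analysis: linear interpolation between bracketing concentrations; unreached endpoints set to highest concentration. The concentration for 50% growth inhibition is given as GI50. TGI is the concentration that stops growth completely.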

What was measured:
Test in all cases: inhibition of tumour cell growth, NCI panel, 48 h
[1] = system: 786-0 renal
[2] = system: A498 renal
[3] = system: A549 NSCLC
[4] = system: ACHN renal
[5] = system: BT-549 breast
[6] = system: CAKI-1 renal
[7] = system: CCRF-CEM leukemia
[8] = system: COLO 205 colon
[9] = system: DU-145 prostate
[10] = system: EKVX NSCLC
[11] = system: HCC-2998 colon
[12] = system: HCT-116 colon
[13] = system: HCT-15 colon
[14] = system: HL-60(TB) leukemia
[15] = system: HOP-62 NSCLC
[16] = system: HOP-92 NSCLC
[17] = system: HS 578T breast
[18] = system: HT29 colon
[19] = system: IGROV1 ovarian
[20] = system: K-562 leukemia
[21] = system: KM12 colon
[22] = system: LOX IMVI melanoma
[23] = system: M14 melanoma
[24] = system: MALME-3M melanoma
[25] = system: MCF7 breast
[26] = system: MDA-MB-231 breast
[27] = system: MDA-MB-435
[28] = system: MDA-MB-468 breast
[29] = system: MOLT-4 leukemia
[30] = system: NCI-H226 lung
[31] = system: NCI-H23 lung
[32] = system: NCI-H460 lung
[33] = system: NCI-H522 lung
[34] = system: NCI/ADR-RES ovarian
[35] = system: OVCAR-3 ovarian
[36] = system: OVCAR-4 ovarian
[37] = system: OVCAR-5 ovarian
[38] = system: OVCAR-8 ovarian
[39] = system: PC-3 prostate
[40] = system: RPMI-8226 leukemia
[41] = system: RXF 393 renal
[42] = system: SF-268 CNS
[43] = system: SF-295 CNS
[44] = system: SF-539 CNS
[45] = system: SK-MEL-2 melanoma
[46] = system: SK-MEL-28 melanoma
[47] = system: SK-MEL-5 melanoma
[48] = system: SK-OV-3 ovarian
[49] = system: SN12C renal
[50] = system: SNB-19 CNS
[51] = system: SNB-75 CNS
[52] = system: SR leukemia
[53] = system: SW-620 colon
[54] = system: T-47D breast
[55] = system: TK-10 renal
[56] = system: U251 CNS
[57] = system: UACC-257 melanoma
[58] = system: UACC-62 melanoma
[59] = system: UO-31 renal

With `CC1(C)CC[C@]2(C(=O)O)CC[C@]3(C)C(=CCC4[C@@]5(C)C[C@@H](O)[C@@H]6OC(c7ccccc7Br)OC[C@@]6(C)C5CC[C@]43C)C2C1` (stereo partly drawn) the GI50 [1] was 3.61 µM, the TGI [1] was 15.3 µM and the GI50 [2] was 3.28 µM. For the same compound, the TGI [2] was 12.6 µM, the GI50 [3] was 2.11 µM and the TGI [3] was 50.1 µM. It also gave a GI50 [4] of 2.53 µM, a TGI [4] of 18.7 µM and a GI50 [5] of 3.11 µM. For the same compound, the TGI [5] was 13.1 µM, the GI50 [6] was 3.16 µM and the TGI [6] was over 100 µM. The GI50 [7] was 3.26 µM, the TGI [7] was 35.4 µM and the GI50 [8] was 1.99 µM. For the same compound, the TGI [8] was 4.89 µM, the GI50 [9] was 3.71 µM and the TGI [9] was over 100 µM. The GI50 [10] was 2.68 µM, the TGI [10] was 36.5 µM and the GI50 [11] was 3.63 µM. It also gave a TGI [11] of 20.8 µM, a GI50 [12] of 2.65 µM and a TGI [12] of 11.1 µM. It also gave a GI50 [13] of 2.21 µM, a TGI [13] of 12.9 µM and a GI50 [14] of 2.57 µM. The TGI [14] was 9.75 µM, the GI50 [15] was 3.9 µM and the TGI [15] was 22.4 µM. It also gave a GI50 [16] of 4.72 µM, a TGI [16] of 37.1 µM and a GI50 [17] of 2.82 µM. For the same compound, the TGI [17] was 14.9 µM, the GI50 [18] was 3.42 µM and the TGI [18] was 16.7 µM. For the same compound, the GI50 [19] was 4.53 µM, the TGI [19] was 30.1 µM and the GI50 [20] was 2.68 µM. For the same compound, the TGI [20] was over 100 µM, the GI50 [21] was 3.91 µM and the TGI [21] was 26.2 µM. It also gave a GI50 [22] of 3.49 µM, a TGI [22] of 13.9 µM and a GI50 [23] of 3.88 µM. It also gave a TGI [23] of 17.7 µM, a GI50 [24] of 3.78 µM and a TGI [24] of 19.3 µM. For the same compound, the GI50 [25] was 3.29 µM, the TGI [25] was over 100 µM and the GI50 [26] was 4.01 µM. The TGI [26] was 21.9 µM, the GI50 [27] was 3.95 µM and the TGI [27] was 23.5 µM. For the same compound, the GI50 [28] was 2.83 µM, the TGI [28] was 20.7 µM and the GI50 [29] was 2.67 µM. The TGI [29] was 23.4 µM, the GI50 [30] was 3.52 µM and the TGI [30] was 34.9 µM. The GI50 [31] was 3.72 µM, the TGI [31] was 43.7 µM and the GI50 [32] was 2.51 µM. The TGI [32] was 9.77 µM, the GI50 [33] was 3.45 µM and the TGI [33] was 78.4 µM. It also gave a GI50 [34] of 3.17 µM, a TGI [34] of over 100 µM and a GI50 [35] of 2.99 µM. The TGI [35] was 12.7 µM, the GI50 [36] was 3.61 µM and the TGI [36] was over 100 µM. The GI50 [37] was 4.08 µM, the TGI [37] was 25 µM and the GI50 [38] was 3.48 µM. For the same compound, the TGI [38] was over 100 µM, the GI50 [39] was 3.99 µM and the TGI [39] was over 100 µM. The GI50 [40] was 2.66 µM, the TGI [40] was 71.8 µM and the GI50 [41] was 4.37 µM. It also gave a TGI [41] of 8.95 µM, a GI50 [42] of 3.45 µM and a TGI [42] of over 100 µM. For the same compound, the GI50 [43] was 2.79 µM, the TGI [43] was 18.8 µM and the GI50 [44] was 3.59 µM. The TGI [44] was 12.8 µM, the GI50 [45] was 4.03 µM and the TGI [45] was 20.7 µM. For the same compound, the GI50 [46] was 4.69 µM, the TGI [46] was 37.2 µM and the GI50 [47] was 3.6 µM. The TGI [47] was 13.9 µM, the GI50 [48] was 3.8 µM and the TGI [48] was 44.1 µM. It also gave a GI50 [49] of 3.14 µM, a TGI [49] of 17.6 µM and a GI50 [50] of 3.82 µM. It also gave a TGI [50] of over 100 µM, a GI50 [51] of 2.44 µM and a TGI [51] of over 100 µM. It also gave a GI50 [52] of 4.15 µM, a TGI [52] of over 100 µM and a GI50 [53] of 3.43 µM. It also gave a TGI [53] of 30.9 µM, a GI50 [54] of 3.46 µM and a TGI [54] of over 100 µM. The GI50 [55] was 4.55 µM, the TGI [55] was over 100 µM and the GI50 [56] was 3.08 µM. The TGI [56] was 14.3 µM, the GI50 [57] was 4.12 µM and the TGI [57] was 30.9 µM. For the same compound, the GI50 [58] was 4.8 µM, the TGI [58] was 24.8 µM and the GI50 [59] was 2.68 µM. The TGI [59] was 12.4 µM.
